{"source": "ChEMBL document CHEMBL4507262", "about": "“Data for DCP probe A-1596586” (2021)", "key": {"[1]": {"biological_target": "Cystic fibrosis transmembrane conductance regulator (Homo sapiens, UniProt P13569)", "assay": "HBE-TECC (Human Bronchial Epithelial- Trans-Epithelial Current Clamp) assay"}, "[2]": {"biological_target": "Adenosine receptor A2b (Homo sapiens) (UniProt P29275)", "assay": "A2B (h) Eurofins-Cerep binding assay", "set-up": "ligand concentration 5 nM", "settings": "filed as antagonist, Compound concentration 10.0 uM"}, "[3]": {"biological_target": "T1, Alpha-2A adrenergic receptor (Homo sapiens) (UniProt P08913)", "T1 sequence (whole entry)": "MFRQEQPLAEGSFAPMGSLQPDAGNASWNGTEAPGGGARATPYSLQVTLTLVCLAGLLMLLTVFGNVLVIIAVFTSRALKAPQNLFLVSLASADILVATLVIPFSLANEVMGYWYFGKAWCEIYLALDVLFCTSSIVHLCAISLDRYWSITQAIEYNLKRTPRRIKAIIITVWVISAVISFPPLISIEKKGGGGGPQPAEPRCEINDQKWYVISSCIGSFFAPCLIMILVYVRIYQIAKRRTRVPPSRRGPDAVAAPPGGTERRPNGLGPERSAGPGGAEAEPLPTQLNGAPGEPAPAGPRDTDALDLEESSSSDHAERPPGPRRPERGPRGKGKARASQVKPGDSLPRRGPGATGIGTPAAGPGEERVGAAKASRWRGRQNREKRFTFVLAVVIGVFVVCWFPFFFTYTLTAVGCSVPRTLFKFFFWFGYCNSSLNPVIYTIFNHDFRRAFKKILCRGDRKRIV", "assay": "Alpha2A (h) Eurofins-Cerep binding assay", "set-up": "ligand concentration 1 nM", "settings": "filed as antagonist, Compound concentration 10.0 uM"}, "[4]": {"biological_target": "T2, 5-hydroxytryptamine receptor 3A (Homo sapiens) (UniProt P46098)", "T2 sequence (whole entry)": "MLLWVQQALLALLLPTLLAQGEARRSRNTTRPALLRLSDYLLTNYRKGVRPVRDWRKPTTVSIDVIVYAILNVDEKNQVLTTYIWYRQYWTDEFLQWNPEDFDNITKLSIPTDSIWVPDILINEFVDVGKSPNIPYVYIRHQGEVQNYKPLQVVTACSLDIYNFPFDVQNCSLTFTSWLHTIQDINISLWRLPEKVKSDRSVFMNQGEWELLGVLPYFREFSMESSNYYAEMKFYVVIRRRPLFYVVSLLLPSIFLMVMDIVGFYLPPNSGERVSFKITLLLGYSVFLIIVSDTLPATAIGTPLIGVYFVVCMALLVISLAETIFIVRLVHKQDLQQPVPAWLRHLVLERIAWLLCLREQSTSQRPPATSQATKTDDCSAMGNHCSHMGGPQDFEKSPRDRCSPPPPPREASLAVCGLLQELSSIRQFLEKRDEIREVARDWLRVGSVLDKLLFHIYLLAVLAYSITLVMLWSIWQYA", "assay": "5-HT3 (h) Eurofins-Cerep binding assay", "set-up": "ligand concentration 0.5 nM", "settings": "filed as antagonist, Compound concentration 10.0 uM"}, "[5]": {"biological_target": "BMP-2-inducible protein kinase (Homo sapiens) (UniProt Q9NSY1)", "sequence (Q9NSY1 whole entry, looked up)": "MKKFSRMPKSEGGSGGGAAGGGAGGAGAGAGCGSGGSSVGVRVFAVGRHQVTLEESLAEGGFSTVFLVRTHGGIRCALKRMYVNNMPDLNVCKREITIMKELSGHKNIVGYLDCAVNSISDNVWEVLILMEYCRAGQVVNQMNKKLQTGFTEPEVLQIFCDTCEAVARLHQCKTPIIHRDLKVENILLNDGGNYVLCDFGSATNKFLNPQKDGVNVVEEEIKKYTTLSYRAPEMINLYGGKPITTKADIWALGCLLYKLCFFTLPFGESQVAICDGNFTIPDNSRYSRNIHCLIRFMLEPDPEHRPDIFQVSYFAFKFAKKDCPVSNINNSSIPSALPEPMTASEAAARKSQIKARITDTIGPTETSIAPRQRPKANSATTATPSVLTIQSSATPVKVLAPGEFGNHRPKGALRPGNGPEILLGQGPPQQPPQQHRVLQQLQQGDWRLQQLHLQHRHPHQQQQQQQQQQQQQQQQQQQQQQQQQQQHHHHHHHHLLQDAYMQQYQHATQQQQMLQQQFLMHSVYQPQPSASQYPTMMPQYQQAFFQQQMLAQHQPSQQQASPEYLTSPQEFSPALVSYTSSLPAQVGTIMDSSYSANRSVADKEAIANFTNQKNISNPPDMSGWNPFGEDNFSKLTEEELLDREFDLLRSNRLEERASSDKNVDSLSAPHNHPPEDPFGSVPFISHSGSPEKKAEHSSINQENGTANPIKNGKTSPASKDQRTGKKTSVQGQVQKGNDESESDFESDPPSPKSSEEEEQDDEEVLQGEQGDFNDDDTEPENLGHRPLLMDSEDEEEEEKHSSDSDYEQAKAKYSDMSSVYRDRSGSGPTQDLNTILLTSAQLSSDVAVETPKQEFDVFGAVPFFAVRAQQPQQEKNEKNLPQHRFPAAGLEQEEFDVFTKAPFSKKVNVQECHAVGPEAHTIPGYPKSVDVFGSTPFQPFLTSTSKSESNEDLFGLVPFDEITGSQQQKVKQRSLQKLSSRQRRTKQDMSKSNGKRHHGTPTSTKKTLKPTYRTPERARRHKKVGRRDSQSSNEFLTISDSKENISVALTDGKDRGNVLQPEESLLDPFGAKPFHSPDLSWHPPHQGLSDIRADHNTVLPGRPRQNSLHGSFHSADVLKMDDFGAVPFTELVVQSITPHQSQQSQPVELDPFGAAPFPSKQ", "settings": "Compound concentration 1000.0 nM"}, "[6]": {"biological_target": "Serine/threonine-protein kinase BRSK1 (Homo sapiens) (UniProt Q8TDC3)", "settings": "Compound concentration 1000.0 nM"}, "[7]": {"biological_target": "Cyclin-dependent kinase 4 (Homo sapiens) (UniProt P11802)", "sequence (P11802 whole entry)": "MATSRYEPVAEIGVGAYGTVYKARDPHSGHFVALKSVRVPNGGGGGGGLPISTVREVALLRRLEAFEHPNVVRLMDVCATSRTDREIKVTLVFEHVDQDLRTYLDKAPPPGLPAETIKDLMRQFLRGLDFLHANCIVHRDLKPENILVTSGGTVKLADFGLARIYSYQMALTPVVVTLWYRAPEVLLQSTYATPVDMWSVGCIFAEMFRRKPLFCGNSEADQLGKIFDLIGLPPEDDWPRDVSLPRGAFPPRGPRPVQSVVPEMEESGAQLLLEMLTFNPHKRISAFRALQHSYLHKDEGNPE", "settings": "Compound concentration 1000.0 nM"}, "[8]": {"biological_target": "Casein kinase II subunit alpha (Homo sapiens) (UniProt P68400)", "settings": "Compound concentration 1000.0 nM"}, "[9]": {"biological_target": "Discoidin domain-containing receptor 2 (Homo sapiens) (UniProt Q16832)", "settings": "Compound concentration 1000.0 nM"}, "[10]": {"biological_target": "Ephrin type-A receptor 7 (Homo sapiens) (UniProt Q15375)", "sequence (Q15375 28-998 limits assumed)": "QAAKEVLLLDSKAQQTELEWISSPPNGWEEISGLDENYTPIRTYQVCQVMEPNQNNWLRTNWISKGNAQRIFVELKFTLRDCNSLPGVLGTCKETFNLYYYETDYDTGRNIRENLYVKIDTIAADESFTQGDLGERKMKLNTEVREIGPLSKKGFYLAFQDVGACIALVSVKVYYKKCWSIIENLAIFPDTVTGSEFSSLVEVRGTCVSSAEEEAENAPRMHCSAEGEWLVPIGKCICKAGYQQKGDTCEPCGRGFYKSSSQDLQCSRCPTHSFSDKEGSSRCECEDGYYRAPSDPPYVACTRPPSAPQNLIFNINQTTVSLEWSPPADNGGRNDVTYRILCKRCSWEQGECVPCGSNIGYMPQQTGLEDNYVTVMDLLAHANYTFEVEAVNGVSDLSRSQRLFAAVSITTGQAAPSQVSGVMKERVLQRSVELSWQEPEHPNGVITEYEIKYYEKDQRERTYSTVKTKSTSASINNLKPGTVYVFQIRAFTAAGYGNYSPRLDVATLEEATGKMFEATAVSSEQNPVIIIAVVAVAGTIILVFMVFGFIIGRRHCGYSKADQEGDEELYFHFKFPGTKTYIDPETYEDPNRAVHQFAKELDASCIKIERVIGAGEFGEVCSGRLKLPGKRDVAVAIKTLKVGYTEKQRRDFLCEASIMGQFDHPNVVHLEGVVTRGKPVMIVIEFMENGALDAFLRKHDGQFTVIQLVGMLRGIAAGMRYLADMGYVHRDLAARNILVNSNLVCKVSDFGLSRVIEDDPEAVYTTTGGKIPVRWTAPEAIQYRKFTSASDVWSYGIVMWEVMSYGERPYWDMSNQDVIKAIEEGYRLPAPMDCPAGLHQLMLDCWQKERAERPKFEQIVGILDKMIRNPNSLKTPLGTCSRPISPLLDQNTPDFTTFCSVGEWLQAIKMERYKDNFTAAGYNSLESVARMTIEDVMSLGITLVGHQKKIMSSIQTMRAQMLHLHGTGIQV", "settings": "Compound concentration 1000.0 nM"}, "[11]": {"biological_target": "Ephrin type-A receptor 8 (Homo sapiens) (UniProt P29322)", "sequence (P29322 whole entry)": "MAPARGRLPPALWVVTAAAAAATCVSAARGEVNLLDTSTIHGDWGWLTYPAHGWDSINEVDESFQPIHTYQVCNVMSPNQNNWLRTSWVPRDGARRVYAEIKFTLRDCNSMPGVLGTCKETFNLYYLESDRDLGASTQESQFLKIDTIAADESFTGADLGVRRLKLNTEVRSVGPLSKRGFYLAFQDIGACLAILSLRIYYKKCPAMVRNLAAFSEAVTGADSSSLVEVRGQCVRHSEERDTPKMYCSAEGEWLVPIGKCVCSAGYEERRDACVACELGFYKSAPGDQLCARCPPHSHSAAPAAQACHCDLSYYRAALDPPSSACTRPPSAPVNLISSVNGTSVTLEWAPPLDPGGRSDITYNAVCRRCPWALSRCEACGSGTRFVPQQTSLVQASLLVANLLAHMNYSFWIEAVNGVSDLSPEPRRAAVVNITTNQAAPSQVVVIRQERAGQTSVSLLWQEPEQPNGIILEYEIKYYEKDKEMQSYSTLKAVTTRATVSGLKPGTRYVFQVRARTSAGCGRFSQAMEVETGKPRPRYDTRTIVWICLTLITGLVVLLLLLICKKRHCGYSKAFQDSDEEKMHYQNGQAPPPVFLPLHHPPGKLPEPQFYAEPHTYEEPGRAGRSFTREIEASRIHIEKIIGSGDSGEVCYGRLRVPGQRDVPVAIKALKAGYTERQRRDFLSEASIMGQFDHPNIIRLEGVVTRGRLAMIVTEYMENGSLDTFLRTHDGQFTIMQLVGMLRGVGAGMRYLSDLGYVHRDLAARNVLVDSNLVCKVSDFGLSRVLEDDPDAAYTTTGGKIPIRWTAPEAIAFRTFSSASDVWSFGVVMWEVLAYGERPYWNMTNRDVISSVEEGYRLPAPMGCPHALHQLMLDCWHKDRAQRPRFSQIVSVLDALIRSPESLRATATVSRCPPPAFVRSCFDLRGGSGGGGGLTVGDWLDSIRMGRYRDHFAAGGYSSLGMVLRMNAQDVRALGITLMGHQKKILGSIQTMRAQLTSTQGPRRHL", "settings": "Compound concentration 1000.0 nM"}, "[12]": {"biological_target": "Ephrin type-B receptor 2 (Homo sapiens) (UniProt P29323)", "settings": "Compound concentration 1000.0 nM"}, "[13]": {"biological_target": "Receptor tyrosine-protein kinase erbB-2 (Homo sapiens) (UniProt P04626)", "sequence (P04626 whole entry)": "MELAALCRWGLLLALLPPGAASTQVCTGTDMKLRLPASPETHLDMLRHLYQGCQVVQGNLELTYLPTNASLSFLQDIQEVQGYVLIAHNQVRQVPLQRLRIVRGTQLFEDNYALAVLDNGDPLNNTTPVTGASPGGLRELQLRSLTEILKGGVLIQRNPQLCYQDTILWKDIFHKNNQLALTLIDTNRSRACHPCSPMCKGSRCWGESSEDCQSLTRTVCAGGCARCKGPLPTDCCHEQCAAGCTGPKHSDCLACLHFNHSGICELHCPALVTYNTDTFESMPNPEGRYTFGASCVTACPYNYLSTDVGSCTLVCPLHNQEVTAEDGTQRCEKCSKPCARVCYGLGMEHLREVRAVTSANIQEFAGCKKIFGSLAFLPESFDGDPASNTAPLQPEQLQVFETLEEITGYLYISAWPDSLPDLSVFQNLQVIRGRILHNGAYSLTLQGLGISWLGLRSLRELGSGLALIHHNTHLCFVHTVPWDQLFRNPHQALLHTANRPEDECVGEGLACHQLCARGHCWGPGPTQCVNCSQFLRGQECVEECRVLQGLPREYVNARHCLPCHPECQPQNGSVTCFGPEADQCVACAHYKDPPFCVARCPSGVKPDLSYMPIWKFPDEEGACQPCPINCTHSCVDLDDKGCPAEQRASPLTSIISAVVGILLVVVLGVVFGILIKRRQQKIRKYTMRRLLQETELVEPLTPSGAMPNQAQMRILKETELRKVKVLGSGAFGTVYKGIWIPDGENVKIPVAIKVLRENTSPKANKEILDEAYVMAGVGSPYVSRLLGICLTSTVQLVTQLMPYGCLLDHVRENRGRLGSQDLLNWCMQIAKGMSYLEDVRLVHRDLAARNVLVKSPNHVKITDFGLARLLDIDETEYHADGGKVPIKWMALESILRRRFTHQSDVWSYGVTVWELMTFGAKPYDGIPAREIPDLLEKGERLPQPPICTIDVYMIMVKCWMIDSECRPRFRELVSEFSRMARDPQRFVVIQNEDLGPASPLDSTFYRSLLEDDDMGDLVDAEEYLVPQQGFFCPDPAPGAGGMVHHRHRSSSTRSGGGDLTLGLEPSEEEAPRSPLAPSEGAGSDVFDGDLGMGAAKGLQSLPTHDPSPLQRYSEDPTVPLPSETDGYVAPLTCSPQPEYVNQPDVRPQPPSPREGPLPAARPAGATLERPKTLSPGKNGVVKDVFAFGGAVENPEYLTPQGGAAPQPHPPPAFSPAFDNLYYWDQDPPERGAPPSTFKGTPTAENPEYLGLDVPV", "settings": "Compound concentration 1000.0 nM"}, "[14]": {"biological_target": "Cyclin-G-associated kinase (Homo sapiens) (UniProt O14976)", "settings": "Compound concentration 1000.0 nM"}, "[15]": {"biological_target": "Rhodopsin kinase GRK1 (Homo sapiens) (UniProt Q15835)", "settings": "Compound concentration 1000.0 nM"}, "[16]": {"biological_target": "Mitogen-activated protein kinase 8 (Homo sapiens) (UniProt P45983)", "settings": "Compound concentration 1000.0 nM"}, "[17]": {"biological_target": "MAP kinase-activated protein kinase 5 (Homo sapiens) (UniProt Q8IW41)", "settings": "Compound concentration 1000.0 nM"}, "[18]": {"biological_target": "Dual specificity mitogen-activated protein kinase kinase 2 (Homo sapiens) (UniProt P36507)", "settings": "Compound concentration 1000.0 nM"}, "[19]": {"biological_target": "Serine/threonine-protein kinase Nek5 (Homo sapiens) (UniProt Q6P3R8)", "settings": "Compound concentration 1000.0 nM"}, "[20]": {"biological_target": "Serine/threonine-protein kinase Nek7 (Homo sapiens) (UniProt Q8TDX7)", "settings": "Compound concentration 1000.0 nM"}, "[21]": {"biological_target": "Serine/threonine-protein kinase PknB (Mycobacterium tuberculosis) (UniProt P9WI81)", "settings": "Compound concentration 1000.0 nM"}, "[22]": {"biological_target": "Protein kinase C theta type (Homo sapiens) (UniProt Q04759)", "settings": "Compound concentration 1000.0 nM"}, "[23]": {"biological_target": "Serine/threonine-protein kinase SIK3 (Homo sapiens) (UniProt Q9Y2K2)", "settings": "Compound concentration 1000.0 nM"}, "[24]": {"biological_target": "Tyrosine-protein kinase Srms (Homo sapiens) (UniProt Q9H3Y6)", "settings": "Compound concentration 1000.0 nM"}, "[25]": {"biological_target": "Serine/threonine-protein kinase TNNI3K (Homo sapiens) (UniProt Q59H18)", "settings": "Compound concentration 1000.0 nM"}, "[26]": {"biological_target": "NT-3 growth factor receptor (Homo sapiens) (UniProt Q16288)", "settings": "Compound concentration 1000.0 nM"}, "[27]": {"biological_target": "Non-receptor tyrosine-protein kinase TYK2 (Homo sapiens) (UniProt P29597)", "settings": "Compound concentration 1000.0 nM"}, "[28]": {"biological_target": "D(1B) dopamine receptor (Homo sapiens) (UniProt P21918)", "settings": "Compound concentration 10.0 uM"}, "[29]": {"biological_target": "Mu-type opioid receptor (Homo sapiens) (UniProt P35372)", "settings": "Compound concentration 10.0 uM"}, "[30]": {"biological_target": "Histamine H4 receptor (Homo sapiens) (UniProt Q9H3N8)", "sequence (Q9H3N8 whole entry)": "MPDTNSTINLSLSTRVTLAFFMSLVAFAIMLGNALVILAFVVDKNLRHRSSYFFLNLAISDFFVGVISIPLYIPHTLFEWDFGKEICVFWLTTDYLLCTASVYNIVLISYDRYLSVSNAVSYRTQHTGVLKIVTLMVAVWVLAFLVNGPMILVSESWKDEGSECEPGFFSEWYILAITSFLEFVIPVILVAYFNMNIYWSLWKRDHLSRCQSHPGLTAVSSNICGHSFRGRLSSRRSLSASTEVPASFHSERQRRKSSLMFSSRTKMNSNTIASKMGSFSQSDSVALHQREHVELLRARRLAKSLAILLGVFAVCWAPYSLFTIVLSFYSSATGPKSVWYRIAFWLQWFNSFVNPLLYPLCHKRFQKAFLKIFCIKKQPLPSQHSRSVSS", "settings": "Compound concentration 10.0 uM"}, "[31]": {"biological_target": "GABA-A receptor; anion channel (Rattus norvegicus) (UniProt O09028+P15431+P18506+P18508+P19969+P20236+P23574+P23576+P28471+P28473+P30191+P62813+P63079+P63138+Q91ZM7+Q9ES14)", "settings": "Compound concentration 10.0 uM"}}, "note": "Active and inactive are the calls of the source. The calls are words filed in the database; no cut-off is given here."}
{"compound": "COc1ccc2c(c1)O[C@H](c1ccc(OC)c(OC)c1)C[C@@H]2NC(=O)C1(c2ccc3c(c2)OC(F)(F)O3)CC1", "note": "[A-1596584]", "values": [{"measurement": "EC50", "setting": "[1]", "result": "> 3000 nM (not active)"}, {"measurement": "% Inhibition of Control Specific Binding (Mean n=2)", "setting": "[2]", "result": 3.6, "unit": "%"}, {"measurement": "% Inhibition of Control Specific Binding (Mean n=2)", "setting": "[3]", "result": 5.1, "unit": "%"}, {"measurement": "% Inhibition of Control Specific Binding (Mean n=2)", "setting": "[4]", "result": 0.8, "unit": "%"}, {"measurement": "residual activity", "setting": "[5]", "result": 100, "unit": "%"}, {"measurement": "residual activity", "setting": "[6]", "result": 100, "unit": "%"}, {"measurement": "residual activity", "setting": "[7]", "result": 100, "unit": "%"}, {"measurement": "residual activity", "setting": "[8]", "result": 100, "unit": "%"}, {"measurement": "residual activity", "setting": "[9]", "result": 94, "unit": "%"}, {"measurement": "residual activity", "setting": "[10]", "result": 100, "unit": "%"}, {"measurement": "residual activity", "setting": "[11]", "result": 100, "unit": "%"}, {"measurement": "residual activity", "setting": "[12]", "result": 84, "unit": "%"}, {"measurement": "residual activity", "setting": "[13]", "result": 100, "unit": "%"}, {"measurement": "residual activity", "setting": "[14]", "result": 100, "unit": "%"}, {"measurement": "residual activity", "setting": "[15]", "result": 97, "unit": "%"}, {"measurement": "residual activity", "setting": "[16]", "result": 96, "unit": "%"}, {"measurement": "residual activity", "setting": "[17]", "result": 100, "unit": "%"}, {"measurement": "residual activity", "setting": "[18]", "result": 100, "unit": "%"}, {"measurement": "residual activity", "setting": "[19]", "result": 100, "unit": "%"}, {"measurement": "residual activity", "setting": "[20]", "result": 100, "unit": "%"}, {"measurement": "residual activity", "setting": "[21]", "result": 88, "unit": "%"}, {"measurement": "residual activity", "setting": "[22]", "result": 100, "unit": "%"}, {"measurement": "residual activity", "setting": "[23]", "result": 95, "unit": "%"}, {"measurement": "residual activity", "setting": "[24]", "result": 87, "unit": "%"}, {"measurement": "residual activity", "setting": "[25]", "result": 100, "unit": "%"}, {"measurement": "residual activity", "setting": "[26]", "result": 92, "unit": "%"}, {"measurement": "residual activity", "setting": "[27]", "result": 100, "unit": "%"}, {"measurement": "inhibition", "setting": "[28]", "result": 20, "unit": "%"}, {"measurement": "inhibition", "setting": "[29]", "result": 4.18, "unit": "%"}, {"measurement": "inhibition", "setting": "[30]", "result": 6.21, "unit": "%"}, {"measurement": "inhibition", "setting": "[31]", "result": -8.42, "unit": "%"}]}
{"compound": "COc1ccc2c(c1)O[C@@H](c1ccc(OC)c(OC)c1)C[C@H]2NC(=O)C1(c2ccc3c(c2)OC(F)(F)O3)CC1", "note": "[A-1596586]", "values": [{"measurement": "EC50", "setting": "[1]", "result": "28 nM (active)"}, {"measurement": "% Inhibition of Control Specific Binding (Mean n=2)", "setting": "[2]", "result": 3.7, "unit": "%"}, {"measurement": "% Inhibition of Control Specific Binding (Mean n=2)", "setting": "[3]", "result": 8.7, "unit": "%"}, {"measurement": "% Inhibition of Control Specific Binding (Mean n=2)", "setting": "[4]", "result": -3, "unit": "%"}, {"measurement": "residual activity", "setting": "[5]", "result": 100, "unit": "%"}, {"measurement": "residual activity", "setting": "[6]", "result": 99, "unit": "%"}, {"measurement": "residual activity", "setting": "[7]", "result": 100, "unit": "%"}, {"measurement": "residual activity", "setting": "[8]", "result": 94, "unit": "%"}, {"measurement": "residual activity", "setting": "[9]", "result": 98, "unit": "%"}, {"measurement": "residual activity", "setting": "[10]", "result": 86, "unit": "%"}, {"measurement": "residual activity", "setting": "[11]", "result": 82, "unit": "%"}, {"measurement": "residual activity", "setting": "[12]", "result": 100, "unit": "%"}, {"measurement": "residual activity", "setting": "[13]", "result": 75, "unit": "%"}, {"measurement": "residual activity", "setting": "[14]", "result": 100, "unit": "%"}, {"measurement": "residual activity", "setting": "[15]", "result": 95, "unit": "%"}, {"measurement": "residual activity", "setting": "[16]", "result": 91, "unit": "%"}, {"measurement": "residual activity", "setting": "[17]", "result": 76, "unit": "%"}, {"measurement": "residual activity", "setting": "[18]", "result": 87, "unit": "%"}, {"measurement": "residual activity", "setting": "[19]", "result": 71, "unit": "%"}, {"measurement": "residual activity", "setting": "[20]", "result": 100, "unit": "%"}, {"measurement": "residual activity", "setting": "[21]", "result": 85, "unit": "%"}, {"measurement": "residual activity", "setting": "[22]", "result": 98, "unit": "%"}, {"measurement": "residual activity", "setting": "[23]", "result": 82, "unit": "%"}, {"measurement": "residual activity", "setting": "[24]", "result": 94, "unit": "%"}, {"measurement": "residual activity", "setting": "[25]", "result": 100, "unit": "%"}, {"measurement": "residual activity", "setting": "[26]", "result": 83, "unit": "%"}, {"measurement": "residual activity", "setting": "[27]", "result": 91, "unit": "%"}, {"measurement": "inhibition", "setting": "[28]", "result": 20.7, "unit": "%"}, {"measurement": "inhibition", "setting": "[29]", "result": 6.01, "unit": "%"}, {"measurement": "inhibition", "setting": "[30]", "result": -2.97, "unit": "%"}, {"measurement": "inhibition", "setting": "[31]", "result": 11.1, "unit": "%"}]}
